{
  "source": "patent US8304442B2",
  "about": "“Compounds having immunomodulator activity” (Ganial Immunotherapeutics, Inc., priority 2005, dated 2012)",
  "key": {"[1]": {"test_system": "Peritoneal macrophages (PM)", "assay": "In vitro cytokine synthesis by LPS-stimulated peritoneal macrophages", "format": "cell-based, mice", "experimental": "(§1) Peritoneal macrophages (PM) and splenic mononuclear cells (SMNC) were isolated from normal mice, were cultured in nutrient medium and stimulated with LPS and/or ConA, respectively in the absence or presence of GIT27. […] GIT27 had no effect on MIF expression in either cell type, on proliferation of SMNC, and on IL-10 and Interferon (IFN) gamma production by SMNC."}, "[2]": {"test_system": "splenic mononuclear cells (SMNC)", "assay": "In vitro proliferation and cytokine synthesis by ConA-stimulated splenic mononuclear cells", "format": "cell-based, mice", "experimental": "as §1"}, "[3]": {"test_system": "Peritoneal macrophages (PM)", "assay": "Ex vivo cytokine synthesis of PM isolated from GIT27 treated mice", "format": "in vivo", "details": "mice treated 7 days i.p. 0.5 mg/mouse or p.o. 2.5 mg/mouse", "experimental": "(§2) These experiments were carried out to explore if intraperitoneal (i.p.) or per os (p.o.) treatment of mice with GIT27 could influence the proliferative response of SMNC and the production of IL-1β, IL-10, TNF-α, IFN-γ and MIF from isolated PM and SMNC. PM and SMNC isolated from mice treated in vivo with GIT27 for 7 consecutive days i.p. (0.5 mg/mouse), or p.o. (2.5 mg/mouse), or isolated from control animals that received GIT27 vehicle (Na2HPO4/H2O), or were without any treatment. 24 h after the last GIT27 treatment, PM and SMNC were collected for further in vitro stimulation and analysis."}, "[4]": {"test_system": "splenic mononuclear cells (SMNC)", "assay": "Ex vivo proliferation and cytokine synthesis of SMNC isolated from GIT27 treated mice", "format": "in vivo", "details": "mice treated 7 days i.p. 0.5 mg/mouse or p.o. 2.5 mg/mouse", "experimental": "as §2"}, "[5]": {"test_system": "NF-kB", "assay": "LPS-induced NF-kB DNA binding in monocyte-derived human macrophages", "format": "cell-based"}, "[6]": {"test_system": "LPS-induced lethality", "assay": "LPS-induced lethality in vivo", "parameters": "species or system mice", "details": "for protection from LPS-induced lethality: therapeutic", "experimental": "As expected, most of the control mice either untreated or that received the vehicle of GIT27 succumbed to LPS-challenge within 3 days. […] In contrast, the treatment with GIT27 given either po or ip protect the mice from the lethal effects of LPS in a dose-dependent fashion. When given p.o., GIT27 was effective at the dose of 2.5 mg/mouse and dosed out both at 1.5 and 3 mg/mouse."}, "[7]": {"test_system": "CAR-induced pleurisy", "assay": "Carrageenan (CAR) induced pleurisy", "format": "in vivo, mice", "details": "prophylactic treatment", "description": "GIT27 powerfully suppresses CAR-induced pleurisy in mice All the mice that were challenged with CAR and left untreated or treated with the vehicle of GIT27 developed an acute pleurisy, with production of turbid exudate, PMNs infiltration, and myeloperoxidase (MPO) activity accumulation in the lung."}, "[8]": {"test_system": "type II CIA", "assay": "Type II collagen-induced arthritis (CIA)", "format": "in vivo, mice", "details": "therapeutic", "experimental": "To evaluate the therapeutic effect of GIT27 in arthritis, mice developing type II CIA were treated for 10 consecutive days. […] Control mice were treated under the same experimental regime with the vehicle of GIT27.\nThe vehicle-treated control mice rapidly develop full clinical signs of type II CIA with a progressive increment of the arthritic clinical scores and severe hind paws oedema. This clinical picture was reflected by severe inflammatory arthritis as indicated by the high the progressive increment of the arthritic histological scores determinated by histological evaluation."}, "[9]": {"test_system": "oxazolone-induced hypersensitivity", "assay": "Oxazolone-induced dermatitis", "format": "in vivo, mice"}, "[10]": {"test_system": "MLD-STZ induced diabetes", "assay": "Diabetes induced by multiple low doses of streptozotocin", "format": "in vivo, CBA/H mice", "details": "prophylactic", "description": "Both i.p and p.o. treatment with GIT27 suppressed clinical development of diabetes that is induced in CBA/H mice by multiple low doses of streptozotocin. CBA/H mice developed sustained hyperglycaemia over a 2-week period following MLD-STZ injections. As expected, CBA/H control mice treated with the vehicle of GIT27 either i.p. or p.o. develop diabetes with sustained hyperglycaemia developed over a 2-week period following MLD-STZ injections."}, "[11]": {"test_system": "DNB-induced colitis", "assay": "DNB-induced colitis", "format": "in vivo, mice", "experimental": "Within 5 days after challenge with dinitrobenzene sulfonic acid (DNB), mice develop colitis. The disease severity is evaluated based on a macroscopic score. The vehicle-treated control mice and untreated mice developed colitis with a predictable and progressive increase in inflammation and body weight loss. […] The colons of the control mice and of the GIT27 treated mice were removed, sectioned, fixed, and stained with hematoxylin and eosin. […] The tissue myeloperoxidase activity is a well established marker to assess the inflammatory cell (mainly neutrophils) infiltration. […] We counted an average of 8,9±1.2 (means±SD) cells/high power field in the of DNB-induced animals, whereas there were only 3.37±0.8 cells/high-power field in DNB-induced animals pretreated with GIT27 (p<0.0001)."}, "[12]": {"test_system": "IL-10", "details": "J. Exp Med.; cited from earlier work"}, "[13]": {"details": "10 consecutive days from clinical score ≧1, vs vehicle"}, "[14]": {"details": "treated during or before the sensitization phase"}},
  "data": [
    {"compound": "O=C(O)CC1CC(c2ccccc2)=NO1", "note": "(centres unmarked) [GIT27, 3-phenyl-4,5-dihydro-5-isoxazoleacetic acid]", "values": [
      {"measurement": "MIF expression in PM", "setting": "[1]", "value": "no effect"},
      {"measurement": "production of IL-1β by PM", "setting": "[1]; LPS stimulated", "value": "inhibited"},
      {"measurement": "production of IL-10 by PM", "setting": "[1]; LPS stimulated", "value": "inhibited"},
      {"measurement": "production of TNF α by PM", "setting": "[1]; LPS stimulated", "value": "markedly inhibited"},
      {"measurement": "MIF expression in SMNC", "setting": "[2]", "value": "no effect"},
      {"measurement": "IL-10 production by SMNC", "setting": "[2]; ConA stimulated", "value": "no effect"},
      {"measurement": "Interferon (IFN) gamma production by SMNC", "setting": "[2]; ConA stimulated", "value": "no effect"},
      {"measurement": "production of TNF α by SMNC", "setting": "[2]; ConA stimulated", "value": "markedly inhibited"},
      {"measurement": "proliferation of SMNC", "setting": "[2]; ConA stimulated", "value": "no effect"},
      {"measurement": "MIF expression by PM upon mitogenic stimulation", "setting": "[3]", "value": "normal pattern"},
      {"measurement": "synthesis of IL-1β by PM", "setting": "[3]", "value": "impaired synthesis"},
      {"measurement": "synthesis of IL-10 by PM", "setting": "[3]", "value": "impaired synthesis"},
      {"measurement": "synthesis of TNF α by PM", "setting": "[3]", "value": "impaired synthesis"},
      {"measurement": "IFN-γ production by SMNC upon stimulation", "setting": "[4]", "value": "normal capacity to produce"},
      {"measurement": "IL-1β production by SMNC upon stimulation", "setting": "[4]", "value": "normal capacity to produce"},
      {"measurement": "IL-10 production by SMNC upon stimulation", "setting": "[4]", "value": "normal capacity to produce"},
      {"measurement": "MIF expression by SMNC", "setting": "[4]", "value": "normal expression pattern"},
      {"measurement": "TNF-α production by SMNC upon stimulation", "setting": "[4]", "value": "normal capacity to produce"},
      {"measurement": "proliferation of SMNC", "setting": "[4]", "value": "normal capacity to proliferate"},
      {"measurement": "DNA binding of NF-kB induced by LPS", "setting": "[5]", "value": "powerfully inhibits in a dose-dependent fashion"},
      {"measurement": "protection from LPS-induced lethality", "setting": "[6]; i.p., between 0.25 and 0.5 mg/mouse", "value": "dose-dependent protection"},
      {"measurement": "LPS-induced lethality", "setting": "[6]; p.o. and i.p., prophylactic regime (-24 and -1 hour prior to LPS)", "value": "significantly reducing"},
      {"measurement": "protection from LPS-induced lethality", "setting": "[6]; p.o., 2.5 mg/mouse", "value": "effective"},
      {"measurement": "protection from LPS-induced lethality", "setting": "[6]; p.o., 1.5 and 3 mg/mouse", "value": "dosed out"},
      {"measurement": "LPS-induced lethality", "setting": "[6]; therapeutic administration, overall", "value": "powerfully counteracts"},
      {"measurement": "PMNs infiltration", "setting": "[7]", "value": "reduced"},
      {"measurement": "myeloperoxidase (MPO) activity accumulation in the lung", "setting": "[7]", "value": "reduced"},
      {"measurement": "production of exudate", "setting": "[7]", "value": "reduced"},
      {"measurement": "overall effect on CAR-induced pleurisy", "setting": "[7]; comparable to antibody against mouse TNF-alpha", "value": "powerful protective effect"},
      {"measurement": "clinical arthritic scores", "setting": "[8]; [13]", "value": "lower"},
      {"measurement": "histological arthritic scores", "setting": "[8]; [13]", "value": "lower"},
      {"measurement": "progression of the arthritic disease", "setting": "[8]; 10 consecutive days, potency comparable to dexamethasone", "value": "significantly slower progression"},
      {"measurement": "ear thickness", "setting": "[9]; elicitation phase: treated one hour after second exposure to oxazolone", "value": "significant decrease"},
      {"measurement": "increment of ear thickness", "setting": "[9]; [14]", "value": "significantly suppressed"},
      {"measurement": "increment of ear weight", "setting": "[9]; [14]", "value": "significantly suppressed"},
      {"measurement": "diabetogenic effect of MLD-STZ (hyperglycaemia)", "setting": "[10]; i.p.", "value": "significantly reduced"},
      {"measurement": "development of hyperglycaemia", "setting": "[10]; p.o.", "value": "significantly reducing"},
      {"measurement": "inflammatory cell infiltration (colon myeloperoxidase activity)", "setting": "[11]; 5 days after induction of colitis, p<0.0001", "value": "significant reduction"},
      {"measurement": "infiltrating neutrophils in histology samples", "setting": "[11]; means±SD, DNB-induced animals pretreated, p<0.0001", "value": "3.37±0.8", "unit": "cells/high-power field"},
      {"measurement": "tissue damage (colon histology)", "setting": "[11]; treated before DNB-induced colitis, vs control mice", "value": "significantly reduced"},
      {"measurement": "weight loss", "setting": "[11]; vs control groups", "value": "significant reduction"},
      {"measurement": "increase in colon weight", "setting": "[11]; vs controls", "value": "significantly lower"},
      {"measurement": "progression of inflammatory colitis (macroscopic score)", "setting": "[11]; vs controls, p<0.001", "value": "significantly attenuated"}
    ]},
    {"compound": "Cyclosporin A", "values": [
      {"measurement": "IL-10 synthesis in vitro", "setting": "[12]", "value": "down-regulates"}
    ]}
  ]
}
